From ChEMBL document CHEMBL1136600, “Functional expression and characterization of EryA, the erythritol kinase of Brucella abortus, and enzymatic synthesis of L-erythritol-4-phosphate” (Bioorg Med Chem Lett, 2003) come the findings set out here.

Test [1] relates to Propionibacterium acidipropionici. As to the kind of experiment: Kinetic parameters against EryA, erythritol kinase from Propionibacterium pentosaceum.
In another test the test system is Brucella abortus. As to the kind of experiment: Kinetic parameter against EryA, erythritol kinase of brucella abortus expressed in Escherichia coli.
The nature of test [2]: Inhibition of 4-diphosphocytidyl-2-C-methyl-d-erythritol (CDP-ME) synthase.

On to `Nc1ncnc2c1ncn2[C@@H]1O[C@H](COP(=O)(O)OP(=O)(O)OP(=O)(O)O)[C@@H](O)[C@H]1O`, for which the Michaelis-Menten constant (Km) in test [1] amounted to 4800 µM; in the test on Brucella abortus, 9800 µM. Besides, the k cat in the test with Brucella abortus is 230 s⁻¹.

With `C[C@@](O)(CO)[C@@H](O)COP(=O)(O)O`, the half-maximal inhibitory concentration (IC50) in test [2] was 1360 µM.

As to `OC[C@@H](O)[C@@H](O)CO`, in test [1], the Km came out at 880 µM. For the same compound, in the test on Brucella abortus, the Michaelis-Menten constant (Km) stood at 260 µM and the k cat was 230 s⁻¹.

One may read the Km as the substrate concentration at which the rate is half of its maximum. For orientation: IC50 means the point on the concentration scale where inhibition reaches its midpoint. A high value points to weaker potency in that assay.
